Data reported in patent publication US7723037B2, “Methods and kits for diagnosing or monitoring autoimmune and chronic inflammatory disease” (The Regents of the University of Michigan, priority 2004, dated 2010).

How the values were obtained:
[1] = tested on: CD70; conditions: PHA-stimulated T cells, 3 days, oligonucleotide arrays, mean±SEM, 2 independent experiments
[2] = tested on: CD70 mRNA; test: Real time RT-PCR of CD70 transcripts relative to β-actin in T cells; format: cell-based, human; conditions: for CD70 mRNA (transcripts) in CD4+ T cells: anti-CD3 + anti-CD28, 3 days, 5 μm 5-azaC, 50 μm Pca, 20 μm Hyd, 40 μm UO126, 25 μm PD98059 (FIG. 9); for expression of CD70 mRNA relative to that of beta-actin: PHA-stimulated T cells, treated vs untreated, real time RT-PCR (FIG. 1B)
Method: Cells and cell culture. Peripheral blood mononuclear cells (PBMCs) were isolated by density-gradient centrifugation. T cells were then isolated by E-rosetting (See, e.g., Golbus et al., Clin Immunol Immunopathol 46, 129 (1988)). […] Where indicated, the cells were cultured in RPMI 1640/10% fetal calf serum (FCS) supplemented with interleukin-2 (IL-2) (See, e.g., Richardson et al., Clin Immunol Immunopathol 55, 368 (1990)), in round-bottomed 5-ml culture tubes (FALCON). Cells were stimulated with 1 μg/ml of PHA (REMEL) for 16 hours, then cultured in 24-well plates at a density of 1×10^6 for an additional 72 hours in the presence of 2-deoxy-5-azaC or 5-azaC (SIGMA ALDRICH), procainamide (SIGMA ALDRICH), hydralazine (SIGMA ALDRICH), or the MEK inhibitors U0126 (PROMEGA) or PD98059 (PROMEGA). In other studies, PHA-stimulated PBMCs were cultured in RPMI 1640/10% FCS and treated with indomethacin, chloroquine, hydrocortisone, and 6-mercaptopurine (6-MP) (all from SIGMA ALDRICH). TT48E, a cloned, CD4+, tetanus toxoid-reactive human T cell line, was cultured as previously described (Cornacchia et al., J Immunol 140, 2197 (1988); Richardson et al., Arthritis Rheum 35, 647 (1992)).
(§1) In other studies, T cells were isolated by negative selection using magnetic beads and instructions provided by the manufacturer (Pan T cell Isolation Kit, Miltenyi), and the CD4+ or CD8+ subset was similarly isolated by magnetic cell sorting. Jurkat cells (E6-1) were cultured as previously described (See, e.g., Cornacchia et al., J Immunol 140:2197 (1998)). Purified human CD4+ T cells were first stimulated with plate bound anti-CD3 and soluble anti-CD28. Briefly, 24 well plates were coated with 300 μl of anti-CD3 (10 μg/ml in PBS—SouthernBiotech) 18 hours 4° C., washed, then 2×10^6 purified T cells were added to the wells in 2 ml RPMI 1640/10% FCS containing 2 μg/ml anti-CD28 (SouthernBiotech).

[3] = tested on: CD70; test: Flow cytometric analysis of CD70 expression on drug-treated T cells; format: cell-based, human; conditions: for CD70 expression on CD4+ T cells: summary statement; for increase of CD70 MFI on CD4+ T cells: 1 μM 5-azaC (n=5), 25 μM PD98059 (n=3), 40 μM U0126 (n=4); for CD70 expression increase on cloned T cell line TT48E: 1 μM 5-azaC or 40 μM U0126 for 3 days, 6 serial experiments; for CD70 expression on PHA-stimulated T cells, treated vs untreated: unfractionated T cells, 3 days, 1 μM 5-azaC, procainamide dose response, 25 μM PD98059, 40 μM U0126 (FIG. 2)
[4] = tested on: B cell IgG production; test: T cell and B cell costimulation assay, IgG ELISA of supernatants; format: cell-based, human; conditions: autologous B cells; for IgG produced by B cells cultured with drug-treated cloned T cells vs untreated T cells: TT48E treated 3 days, without PWM, P<0.05 (FIG. 4); for IgG secreted by B cells cultured with drug-treated T cells vs untreated T cells: unfractionated PHA-stimulated T cells, PWM, 8 days, P<0.05 (FIG. 3)
Method: T cell and B cell costimulation assays. E-rosette-purified T cells were stimulated for 16 hours with PHA and then treated with the indicated chemicals for an additional 72 hours as described above. Where indicated, T cell subsets were isolated by negative selection using magnetic beads (Miltenyi). B cells (1-4×10^5) enriched by negative selection using magnetic beads (Miltenyi) and assessed to be 70-85% pure using PE-conjugated anti-human CD21 (PHARMINGEN), were added to washed, drug-treated autologous T cells, at T cell to B cell ratios of 4:1, 2:1, 1:1, 1:2, and 1:4. Where indicated, 0.625 μg/ml of PWM (ALDRICH) was added. The cells were cultured in RPMI 1640/10% FBS/penicillin/streptomycin for 8 days in 96-well roundbottomed plates (Costar) containing a 200 μl total volume (performed in duplicate). Cells were supplemented with 50 μl of medium on day 4. Where indicated, 1 μg/ml of anti-CD70 monoclonal antibody (HNE51) (DAKO) was added to the cultures. TT48E cells were similarly stimulated with PHA (1 μg/ml) for 18 hours, treated with the indicated drugs for 3 days, then similarly cultured with autologous B cells for 8 days. Where indicated, the TT48E cells were pretreated with 1 μg/ml of anti-CD70 for 30 minutes at 4° C., then washed and added to the B cells, according to protocols described by others (See, e.g., Kobata et al., Proc Natl Acad Sci USA 92, 11249 (1995)).
IgG enzyme-linked immunosorbent assays (ELISAs). IgG was measured in the supernatants of the T cell-B cell cultures (See, e.g., Richardson et al., Clin Immunol Immunopathol 55, 368 (1990)). Briefly, 96-well flatbottomed polystyrene plates (Costar) were coated with 1 μg/ml of goat anti-human IgG (Southern Biotech) and washed. Unreacted combining sites were sealed with 3% bovine serum albumin (BSA) in phosphate buffered saline (PBS) by incubation at 4° C. for 16 hours. Pooled supernatants from duplicate wells were diluted 1:5 in PBS/1% BSA, and 50 μl was added to the wells. Serial dilutions of purified human IgG (Sigma) were used for quantitation. Following incubation and washing, goat anti-human IgG conjugated with horseradish peroxidase (Southern Biotech) was added, and cells were incubated for 2 hours at room temperature. The wells were washed 3 times with PBS/0.1% Tween 20, and color was developed using Sigma Fast tablets. The plates were read at 405 nm using a SpectraMax spectrophotometer (Molecular Devices). All determinations were performed in quadruplicate.
Since CD70 participates in T cell-dependent B cell stimulation (See e.g., Kobata et al., Proc Natl Acad Sci USA 92, 11249 (1995)), the effects of DNA methylation inhibitors on CD70-dependent B cell help were examined. […] Eight days later, total IgG in the supernatants was measured by ELISA. […]

[5] = tested on: CD70 promoter; test: Bisulfite sequencing of the CD70 (TNFSF7) promoter in CD4+ T cells; format: cell-based, human; conditions: for methylation of the 10 CG pairs between −515 and −423 of the TNFSF7 promoter: CD4+ T cells stimulated with anti-CD3 and anti-CD28, vs stimulated untreated controls (FIG. 13, 14)
Method: as §1
Bisulfite sequencing. The putative CD70 promoter was identified using the published CD70 cDNA sequence and Tfsitescan software. Deoxycytosine (dC) and deoxymethylcytosine (d^mC) bases in the gene promoter and 5′ flanking sequences were identified by bisulfite treatment of purified DNA followed by nested PCR amplification of 3 sequential fragments to span the entire region. The primers were designed to avoid CG pairs and to account for the conversion of dC to dU by the bisulfite. EcoRI sites were added to the forward primers, and XbaI to the reverse, to facilitate cloning. The amplified fragments were then cloned into PBS+, and 5 clones sequenced for each fragment. The primers used were: […]
The effect of lupus and DNA methylation inhibitors on a regulatory element in the CD70 promoter was examined. DNA was isolated from the CD4+ T cells of 7 healthy individuals or 6 lupus patients, bisulfite treated, the region from −466-−515, containing 6 CG pairs was amplified by PCR, and 5 fragments sequenced from each individual. The average methylation status of the 6 CG pairs for healthy versus lupus individuals is shown (FIG. 8, NI and Lupus, respectively). CD4+ T cells from 5 individuals were also stimulated with PHA, treated with the irreversible DNA methyltransferase inhibitor 5-azacytidine (5-azaC), and the methylation status of the 6 CG pairs similarly analyzed from the 25 fragments sequenced (FIG. 8, 5-azaC). […] Results are presented as the mean±SEM of the average methylation of the 6 CG pairs, measured from the 10-35 determinations/group.
The effects of the DNA methylation inhibitors on the methylation status of this region were then compared. […] Again, 5 cloned fragments were sequenced from each control, for a total of 35 determinations per CG pair. […] FIG. 14 compares the average methylation for the 10 CG pairs (−515 to −423) in the T cells treated with DNA methylation inhibitors relative to stimulated, untreated controls.

[6] = tested on: CD70; test: CD70 expression on CD4+ cells of PBMCs cultured with medications used to treat lupus, flow cytometry; format: cell-based, human; conditions: PBMCs with or without PHA, 24 hours, graded concentrations (1-100 μM)

## Nc1ncn([C@H]2C[C@H](O)[C@@H](CO)O2)c(=O)n1 [2-deoxy-5-azaC]
[1]
  CD70 expression increase in treated cells relative to untreated controls: 2.6±0.6 fold

## Nc1ncn([C@@H]2O[C@H](CO)[C@@H](O)[C@H]2O)c(=O)n1 [5-azaC, 5-azacytidine]
[2]
  CD70 mRNA (transcripts) in CD4+ T cells: increased steady state levels of CD70 mRNA
  expression of CD70 mRNA relative to that of beta-actin: increased the expression of CD70 mRNA
[3]
  CD70 expression on CD4+ T cells: increased CD70 expression
  increase of CD70 MFI on CD4+ T cells: 1.53±0.45 fold
  CD70 expression increase on cloned T cell line TT48E: 1.69±0.33 fold
  CD70 expression on PHA-stimulated T cells, treated vs untreated: small increase
[3]; range of 5-azaC concentrations, PHA-stimulated T cells, n=5 experiments (FIG. 2B)
  concentration producing the greatest effect on CD70 expression: 1 µM
[4]
  IgG produced by B cells cultured with drug-treated cloned T cells vs untreated T cells: greater amounts of IgG
  IgG secreted by B cells cultured with drug-treated T cells vs untreated T cells: greater amounts of IgG
[5]
  methylation of the 10 CG pairs between −515 and −423 of the TNFSF7 promoter: hypomethylated compared to controls
[1]
  CD70 expression increase in treated cells relative to untreated controls: > 2 fold

## Sc1ncnc2nc[nH]c12 [6-MP, 6-mercaptopurine]
[6]
  CD70 expression on stimulated or unstimulated CD4+ cells: No increase in CD70 expression

## COc1cccc(-c2cc(=O)c3ccccc3o2)c1N [PD98059]
[2]
  CD70 mRNA (transcripts) in CD4+ T cells: increased steady state levels of CD70 mRNA
[3]
  CD70 expression on CD4+ T cells: increased CD70 expression
  increase of CD70 MFI on CD4+ T cells: 1.63±0.43 fold
  CD70 expression on PHA-stimulated T cells, treated vs untreated: increase in CD70 expression
[5]
  methylation of the 10 CG pairs between −515 and −423 of the TNFSF7 promoter: appears to demethylate

## N#CC(=C(/N)Sc1ccccc1N)/C(C#N)=C(\N)Sc1ccccc1N [U0126]
[2]
  CD70 mRNA (transcripts) in CD4+ T cells: increased steady state levels of CD70 mRNA
  expression of CD70 mRNA relative to that of beta-actin: increased the expression of CD70 mRNA
[3]
  CD70 expression on CD4+ T cells: increased CD70 expression
  increase of CD70 MFI on CD4+ T cells: 3.20±0.44 fold
  CD70 expression increase on cloned T cell line TT48E: 1.87±0.37 fold
  CD70 expression on PHA-stimulated T cells, treated vs untreated: increase in CD70 expression
[3]; T cells treated with 40 μM U0126, P=0.085
  CD70 MFI increase in T cells treated with U0126 (FIG. 2I): 2.83±0.95 fold
[4]
  IgG produced by B cells cultured with drug-treated cloned T cells vs untreated T cells: greater amounts of IgG
  IgG secreted by B cells cultured with drug-treated T cells vs untreated T cells: greater amounts of IgG
[5]
  methylation of the 10 CG pairs between −515 and −423 of the TNFSF7 promoter: appears to demethylate

## CCN(CC)CCCC(C)Nc1ccnc2cc(Cl)ccc12 (stereo not drawn) [chloroquine]
[6]
  CD70 expression on stimulated or unstimulated CD4+ cells: No increase in CD70 expression

## C[C@]12CCC(=O)C=C1CC[C@@H]1[C@@H]2[C@@H](O)C[C@@]2(C)[C@H]1CC[C@]2(O)C(=O)CO [hydrocortisone]
[6]
  CD70 expression on stimulated or unstimulated CD4+ cells: No increase in CD70 expression

## COc1ccc2c(c1)c(CC(=O)O)c(C)n2C(=O)c1ccc(Cl)cc1 [indomethacin]
[6]
  CD70 expression on stimulated or unstimulated CD4+ cells: No increase in CD70 expression

## CCN(CC)CCNC(=O)c1ccc(N)cc1 [procainamide]
[2]
  CD70 mRNA (transcripts) in CD4+ T cells: increased steady state levels of CD70 mRNA
[3]
  CD70 expression on CD4+ T cells: increased CD70 expression
  CD70 expression on PHA-stimulated T cells, treated vs untreated: increase in the ratio of the mean fluorescence intensity (MFI) of CD70 expression
[5]
  methylation of the 10 CG pairs between −515 and −423 of the TNFSF7 promoter: appears to demethylate
[5]; PHA-stimulated CD4+ T cells (FIG. 8)
  methylation of the region from −466-−515 (6 CG pairs) of the CD70 promoter: demethylate this region
